Test results: patent publication US12251458B1, “Anti-aging preparation for skin and application thereof” (South China Normal University, priority 2023, dated 2025)

Key:
COL1A2 [1] = assay: COL1A2 expression in mouse skin fibroblasts by fluorescent quantitative PCR; assay type: cell-based, C57BL/6 mice; conditions: for expression of COL1A2 in the fibroblasts relative to blank control group: mouse skin fibroblasts
From the text: (§1) Experimental method: skin tissues were taken from the backs of newborn C57BL/6 mice, and fibroblasts obtained from mice were isolated and purified. […] The third-generation of fibroblasts were taken for experiments.
Experimental method: the COL1A2 level was detected using fluorescent quantitative polymerase chain reaction (PCR) method. The experiment was divided into two major groups: a blank control group and a sodium 4-[(1E)-2-[[(4-chlorophenyl)methyl]sulfonyl]alkyne]-benzoate treatment group. In the blank control group, the fibroblasts were cultured in a normal medium; and in the sodium 4-[(1E)-2-[[(4-chlorophenyl)methyl]sulfonyl]alkyne]-benzoate treatment group, the fibroblasts were treated with five media containing different concentrations (0.1 μM, […], 1 μM, 3 μM, and 6 μM) of sodium 4-[(1E)-2-[[(4-chlorophenyl)methyl]sulfonyl]alkyne]-benzoate (i.e., normal medium added with sodium 4-[(1E)-2-[[(4-chlorophenyl)methyl]sulfonyl]alkyne]-benzoate at the aforementioned concentrations) for 24 h. The specific process was as follows. The third-generation of fibroblasts was uniformly inoculated into a six-well plate. In the blank control group, the fibroblasts were cultured in the normal medium, and in the sodium 4-[(1E)-2-[[(4-chlorophenyl)methyl]sulfonyl]alkyne]-benzoate treatment group, the fibroblasts were cultured in media containing sodium 4-[(1E)-2-[[(4-chlorophenyl)methyl]sulfonyl]alkyne]-benzoate at the corresponding concentrations. After 24 h of culture, total RNA was extracted from the fibroblasts and subjected to reverse transcription to obtain complementary deoxyribonucleic acid (cDNA), which was then subjected to fluorescent quantitative PCR. After the end of reaction, an amplification curve and a melting curve of the fluorescent quantitative PCR were confirmed, with glyceraldehyde-3-phosphate dehydrogenase (GAPDH) as an internal reference gene. The results were analyzed using the internationally accepted 2^−ΔΔCt method.
Total RNA of fibroblasts was extracted using standard laboratory RNA extraction method and stored at −80° C. for later use. The extracted total RNA of fibroblasts was used as a template to synthesize cDNA by using the standard laboratory method, and the synthesized cDNA was stored at −20° C. for later use.
Fluorescent quantitative PCR system: 10 μL of qPCR SYBR Green Master Mix, 2 μL of 2 μM upstream primer, 2 μL of 2 μM downstream primer, and 1000 ng of cDNA template, a total volume of 20 μL by supplementing with diethyl pyrocarbonate (DEPC)-treated water.
Reaction conditions: pre-denaturation at 95° C. for 5 min, followed by 40 cycles of 10 sec at 95° C., 20 sec at 52.9° C., and 20 sec at 72° C. After the end of reaction, the melting curve was analyzed.
Experimental method: the COL1A2 level was detected using fluorescent quantitative PCR method. The experiment was divided into two major groups: a blank control group and a sodium 4-[(1E)-2-[[(4-chlorophenyl)methyl]sulfonyl]alkyne]-benzoate treatment group. In the blank control group, the fibroblasts were cultured in a normal medium; and in the sodium 4-[(1E)-2-[[(4-chlorophenyl)methyl]sulfonyl]alkyne]-benzoate treatment group, the fibroblasts were cultured in a medium containing 0.5 μM of sodium 4-[(1E)-2-[[(4-chlorophenyl)methyl]sulfonyl]alkyne]-benzoate, with incubation times of 24 h, 48 h, and 72 h. The specific process was as follows. The third-generation of fibroblasts was uniformly inoculated into a six-well plate. In the blank control group, the fibroblasts were cultured in a normal medium, and in the sodium 4-[(1E)-2-[[(4-chlorophenyl)methyl]sulfonyl]alkyne]-benzoate treatment group, the fibroblasts were cultured in a medium containing 0.5 μM of sodium 4-[(1E)-2-[[(4-chlorophenyl)methyl]sulfonyl]alkyne]-benzoate (i.e., normal medium containing 0.5μ M of sodium 4-[(1E)-2-[[(4-chlorophenyl)methyl]sulfonyl]alkyne]-benzoate). […]

dermal thickness in skin = assay: Dermal thickness in treated back skin of mice (HE staining); assay type: in vivo, C57BL/6 mice
Experimental: (§2) Sodium 4-[(1E)-2-[[(4-chlorophenyl)methyl]sulfonyl]alkyne]-benzoate was dissolved in water to prepare an aqueous solution of sodium 4-[(1E)-2-[[(4-chlorophenyl)methyl]sulfonyl]alkyne]-benzoate (i.e., an anti-aging preparation for skin). Six healthy C57BL/6 mice aged 6-8 weeks with similar body sizes were selected, and the hair on the backs of the mice was removed gently and harmlessly to expose a similar area of skin on the back of each mouse. The six mice were divided into two groups equally. The same volume of pure water and aqueous solutions containing […] sodium 4-[(1E)-2-[[(4-chlorophenyl)methyl]sulfonyl]alkyne]-benzoate were applied, respectively, to the hair-removed skin on the backs of the mice once a day for 30 consecutive days.
Experimental method: after continuously applying an aqueous solution containing 0.5 μM of sodium 4-[(1E)-2-[[(4-chlorophenyl)methyl]sulfonyl]alkyne]-benzoate or pure water as a blank control to the backs of mice for 30 days, the mice were euthanized for cutting the skin from the treated areas, and hematoxylin-eosin (HE) staining method was used for detecting the dermal thickness in the skin. Specifically, the tissues were fixed, dehydrated with a sucrose solution, embedded in OCT, sliced, stained with hematoxylin, counterstained blue with tap water, stained with eosin, dehydrated and cleared, and then mounted.

[2] = system: collagen fiber content in skin; assay: Collagen fiber content in treated back skin of mice (Masson staining); assay type: in vivo, C57BL/6 mice
Experimental: as §2
Experimental method: after continuously applying an aqueous solution containing 0.5 μM of sodium 4-[(1E)-2-[[(4-chlorophenyl)methyl]sulfonyl]alkyne]-benzoate or pure water as a blank control to the backs of mice for 30 days, the mice were euthanized for cutting the skin from the treated areas, and the Masson staining method was used for detecting the collagen fiber content in the skin. […]

COL1A2 [3] = assay: COL1A2 mRNA level in treated back skin of mice (fluorescent quantitative PCR); assay type: in vivo, C57BL/6 mice; conditions: aqueous solution 0.5 μM applied to hair-removed back skin once a day for 30 days, P=0.0178
Experimental: (§3) Sodium 4-[(1E)-2-[[(4-chlorophenyl)methyl]sulfonyl]alkyne]-benzoate was dissolved in water to prepare an aqueous solution of sodium 4-[(1E)-2-[[(4-chlorophenyl)methyl]sulfonyl]alkyne]-benzoate (i.e., an anti-aging preparation for skin). Six healthy C57BL/6 mice aged 6-8 weeks with similar body sizes were selected, and the hair on the backs of the mice was removed gently and harmlessly to expose a similar area of skin on the back of each mouse. The six mice were divided into two groups equally. […]
(§4) Experimental method: after continuously applying the same volume of aqueous solutions containing 0.5 μM of sodium 4-[(1E)-2-[[(4-chlorophenyl)methyl]sulfonyl]alkyne]-benzoate or pure water as a blank control to the backs of mice for 30 days, the mice were euthanized for cutting the skin from the treated areas. The Westernblot method was employed to detect the protein level of COL1A2, and the fluorescent quantitative PCR method was employed to detect the mRNA level of COL1A2.
Fluorescence quantitative PCR experiment was performed specifically as follows. Total RNA was extracted from skin tissues, and subjected to reverse transcription to obtain cDNA, which was then subjected to fluorescence quantitative PCR. After the end of reaction, an amplification curve and a melting curve of the fluorescent quantitative PCR were confirmed, with GAPDH as an internal reference gene. […]

COL1A2 [4] = assay: COL1A2 protein level in treated back skin of mice (Westernblot); assay type: in vivo, C57BL/6 mice; conditions: aqueous solution 0.5 μM applied to hair-removed back skin once a day for 30 days, P=0.0378
Experimental: as §3, §4
The specific process for the Westernblot experiment was as follows. […] After fluorescent secondary antibodies were incubated, the samples were visualized using an infrared fluorescence scanning imaging system. […]

fibroblasts = assay: Cell viability of fibroblasts after administration (status photographed under a microscope); assay type: cell-based, C57BL/6 mice; conditions: 0.5 μM, 24 h and 48 h
Experimental: as §1
Experimental method: the third-generation of fibroblasts was uniformly inoculated into a six-well plate. In the blank control group, the fibroblasts were cultured in a normal medium, and in the sodium 4-[(1E)-2-[[(4-chlorophenyl)methyl]sulfonyl]alkyne]-benzoate treatment group, the fibroblasts were cultured in a medium containing 0.5 μM of sodium 4-[(1E)-2-[[(4-chlorophenyl)methyl]sulfonyl]alkyne]-benzoate (i.e., normal medium containing 0.5 μM of sodium 4-[(1E)-2-[[(4-chlorophenyl)methyl]sulfonyl]alkyne]-benzoate). After culturing for 24 h and 48 h, respectively, the status of fibroblasts was photographed under a microscope.

MMP-13 = MMP-13 mRNA level in treated back skin of mice (fluorescent quantitative PCR); assay type: in vivo, C57BL/6 mice; conditions: aqueous solution 0.5 M (so in the source) applied to hair-removed back skin once a day for 30 days, P=0.0171
Experimental: as §3
Experimental method: after continuously applying an aqueous solution containing 0.5 M of sodium 4-[(1E)-2-[[(4-chlorophenyl)methyl]sulfonyl]alkyne]-benzoate or pure water as a blank control to the backs of mice for 30 days, the mice were euthanized for cutting the skin from the treated areas, and the fluorescent quantitative PCR method was used for detecting the mRNA level of MMP-13 in skin tissue. Specifically, total RNA was extracted from skin tissues, and subjected to reverse transcription to obtain cDNA, which was then subjected to fluorescence quantitative PCR. After the end of reaction, an amplification curve and a melting curve of the fluorescent quantitative PCR were confirmed, with GAPDH as an internal reference gene. The results were analyzed using the internationally accepted 2^−ΔΔCt method. […]

[5] = same effect verification as Examples 1 and 2

SMILES	increasing the expression of type I collagen (COL1A2) in cells, compared with the sodium salt (COL1A2 [1]; [5])	increasing the dermal thickness in the skin, compared with the sodium salt (dermal thickness in skin; [5])	increasing the collagen fiber content in the skin, compared with the sodium salt [2, 5]	expression of COL1A2 in the fibroblasts relative to blank control group (COL1A2 [1]; 0.5 μM, 24 h, P=0.0003)	expression of COL1A2 in fibroblasts with extension of incubation time (COL1A2 [1]; 0.5 μM, incubation time from 24 h to 72 h)	expression of COL1A2 in fibroblasts compared to the blank control group (COL1A2 [1]; 0.5 μM, incubation time of 72 h)	expression of COL1A2 in the fibroblasts relative to blank control group (COL1A2 [1]; 1 μM, 24 h, P<0.0001)	expression of COL1A2 in the fibroblasts (COL1A2 [1]; any other concentrations (0.1 μM, 3 μM, 6 μM), 24 h)	mRNA level of COL1A2 in skin, increase compared to pure water blank control group (COL1A2 [3])	protein level of COL1A2 in skin, increase compared to pure water blank control group (COL1A2 [4])	dermal thickness in the skin, increase compared to pure water blank control group (dermal thickness in skin; aqueous solution 0.5 μM applied to hair-removed back skin once a day for 30 days, P=0.0004)	viability / status of fibroblasts (fibroblasts)	mRNA level of MMP-13 in skin, decrease compared to pure water blank control group (MMP-13)	collagen fiber content in the skin, increase compared to pure water blank control group ([2]; aqueous solution 0.5 μM applied to hair-removed back skin once a day for 30 days, P=0.0010)
O=C(O)c1ccc(/C=C/S(=O)(=O)Cc2ccc(Cl)cc2)cc1	equivalent effects	equivalent effects	equivalent effects	–	–	–	–	–	–	–	–	–	–	–
O=C([O-])c1ccc(/C=C/S(=O)(=O)Cc2ccc(Cl)cc2)cc1.[Na+]	–	–	–	1.613 times	decreases	no difference	1.173 times	cannot increase the expression of COL1A2	2.681 times	4.024 times	2.9101 times	no adverse effects on viability of fibroblasts	0.5124 times	3.3904 times
